Data from patent publication US9676715B2, “Bis-indolic derivatives, a process for preparing the same and their uses as a drug” (UNIVERSITE JOSEPH FOURIER, priority 2011, dated 2017).
Converted amounts (≈) assume the structure as drawn.

How the values were obtained:
Test in all cases: MIC, microdilution method (9.1)
[1] = test system: S. aureus CIP 65.6; assay type: cell-based, Staphylococcus aureus; settings: Staphylococcus aureus, CIP65, read after 18 h, read-out: MIC
Experimental: (§1) The microdilution method recommended by the Clinical and Laboratory Standard Institute [M07-A8, Vol. 29, No. 2] was used. The activity of indolic compounds was tested against 29 bacterial strains belonging to 17 different species and 12 different genera (Staphylococcus, Streptococcus, Enterococcus, Listeria, Bacillus, Haemophilus, Escherichia, Klebsiella, Enterobacter, Serratia, Pseudomonas, and Acinetobacter). Bacterial inocula were prepared in Mueller Hinton broth (MH2, bioMérieux, Marcy L'Etoile, France), supplemented with 10% sheep blood for fastidious species (i.e., Streptococcus pneumoniae and Haemophilus influenzae). They were dispensed in 96 well microtiter plates (5×10^5 CFU/ml of final inoculum). Indolic compounds were added to the wells as to obtain two-fold serial concentrations (0.50-128 mg/L of final concentrations). Plates were incubated at 37° C. in ambient air, or at 37° C. in 5% CO2 enriched atmosphere for fastidious species. […] Drug-free cultures served as growth controls. Cultures receiving gentamicin, ciprofloxacin or cefotaxime served as positive controls.

[2] = test system: S. aureus ATCC 106414 (VISA); assay type: cell-based, Staphylococcus aureus; settings: Staphylococcus aureus, read after 18 h, read-out: MIC
Experimental: as §1

[3] = test system: S. aureus CIP 103428; assay type: cell-based, Staphylococcus aureus; settings: Staphylococcus aureus, CIP103428, read after 18 h, read-out: MIC
Experimental: as §1

[4] = test system: S. aureus ATCC 6538; assay type: cell-based, Staphylococcus aureus; settings: Staphylococcus aureus, ATCC6538, read after 18 h, read-out: MIC
Experimental: as §1

[5] = test system: S. aureus ATCC 29213; assay type: cell-based, Staphylococcus aureus; settings: Staphylococcus aureus, ATCC29213, read after 18 h, read-out: MIC
Experimental: as §1

[6] = test system: S. aureus ATCC 25923; assay type: cell-based, Staphylococcus aureus; settings: Staphylococcus aureus, ATCC25923, read after 18 h, read-out: MIC
Experimental: as §1

[7] = test system: S. aureus ATCC 9144; assay type: cell-based, Staphylococcus aureus; settings: Staphylococcus aureus, ATCC9144, read after 18 h, read-out: MIC
Experimental: as §1

[8] = test system: S. aureus ATCC 33592 (MRSA); assay type: cell-based, Staphylococcus aureus; settings: Staphylococcus aureus, read after 18 h, read-out: MIC
Experimental: as §1

[9] = test system: S. aureus CIP 65.25 (MRSA); assay type: cell-based, Staphylococcus aureus; settings: Staphylococcus aureus, read after 18 h, read-out: MIC
Experimental: as §1

[10] = test system: S. epidermidis ATCC 12228; assay type: cell-based, Staphylococcus epidermidis; settings: Staphylococcus epidermidis, ATCC12228, read after 18 h, read-out: MIC
Experimental: as §1

[11] = test system: S. epidermidis CIP 103627; assay type: cell-based, Staphylococcus epidermidis; settings: Staphylococcus epidermidis, CIP103627, read after 18 h, read-out: MIC
Experimental: as §1

[12] = test system: S. epidermidis CIP 81.55; assay type: cell-based, Staphylococcus epidermidis; settings: Staphylococcus epidermidis, CIP81, read after 18 h, read-out: MIC
Experimental: as §1

[13] = test system: S. pneumoniae ATCC 6303; assay type: cell-based, Streptococcus pneumoniae; settings: Streptococcus pneumoniae, ATCC6303, 10% sheep blood, 5% CO2, 18 h, read-out: MIC
Experimental: as §1

[14] = test system: S. agalactiae (group B) ATCC 12400; assay type: cell-based, Streptococcus agalactiae; settings: Streptococcus agalactiae, ATCC12400, 18 h, read-out: MIC
Experimental: as §1

[15] = test system: E. faecium CIP 54.32; assay type: cell-based, Enterococcus faecium; settings: Enterococcus faecium, CIP54, 18 h, read-out: MIC
Experimental: as §1

[16] = test system: S. mitis CIP 103335; assay type: cell-based, Streptococcus mitis; settings: Streptococcus mitis, CIP103335, 18 h, read-out: MIC
Experimental: as §1

[17] = test system: S. pyogenes (group A) CIP 104226; assay type: cell-based, Streptococcus pyogenes; settings: Streptococcus pyogenes, CIP104226, 18 h, read-out: MIC
Experimental: as §1

[18] = test system: S. pneumoniae ATCC 49619; assay type: cell-based; settings: Streptococcus pneumoniae, ATCC49619, 10% sheep blood, 5% CO2, 18 h
Experimental: as §1

[19] = test system: Bacillus subtilis CIP 5262; assay type: cell-based; settings: CIP5262, 18 h, read-out: MIC
Experimental: as §1

[20] = test system: Haemophilus influenzae ATCC 49766; assay type: cell-based; settings: ATCC49766; Haemophilus influenzae ATCC 49766; 10% sheep blood, 5% CO2; 18 h; read-out: MIC
Experimental: as §1

[21] = test system: Klebsiella pneumoniae API ATCC 35657; assay type: cell-based; settings: ATCC35657, 18 h, read-out: MIC
Experimental: as §1

[22] = test system: Enterobacter cloacae ATCC13047; assay type: cell-based; settings: 18 h
Experimental: as §1

[23] = test system: Listeria innocua CIP 80.11; assay type: cell-based; settings: CIP80, 18 h, read-out: MIC
Experimental: as §1

[24] = test system: Escherichia coli ATCC 25922; assay type: cell-based; settings: ATCC25922, 18 h
Experimental: as §1

[25] = test system: Acinetobacter baumanii ATCC 19606; assay type: cell-based; settings: Acinetobacter baumannii, ATCC19606, 18 h, read-out: MIC
Experimental: as §1

[26] = test system: Serratia marcescens CIP 103551; assay type: cell-based; settings: CIP103551, 18 h
Experimental: as §1

[27] = test system: Pseudomonas aeruginosa CIP 5933; assay type: cell-based; settings: CIP5933, 18 h, read-out: MIC
Experimental: as §1

[28] = test system: E. faecalis ATCC 29212; assay type: cell-based, Enterococcus faecalis; settings: Enterococcus faecalis, ATCC29212, 18 h, read-out: MIC
Experimental: as §1

Row | MIC [1] | MIC [2] | MIC [3] | MIC [4] | MIC [5] | MIC [6] | MIC [7] | MIC [8] | MIC [9] | MIC [10] | MIC [11] | MIC [12] | MIC [13] | MIC [14] | MIC [15] | MIC [16] | MIC [17] | MIC [18] | MIC [19] | MIC [20] | SMILES | further results
1 | > 32 µg/mL | 32 µg/mL (≈ 59.9 µM) | 32 µg/mL (≈ 59.9 µM) | 32 µg/mL (≈ 59.9 µM) | 32 µg/mL (≈ 59.9 µM) | 32 µg/mL (≈ 59.9 µM) | 32 µg/mL (≈ 59.9 µM) | 32 µg/mL (≈ 59.9 µM) | 32 µg/mL (≈ 59.9 µM) | 32 µg/mL (≈ 59.9 µM) | 32 µg/mL (≈ 59.9 µM) | 32 µg/mL (≈ 59.9 µM) | 128 µg/mL (≈ 240 µM) | 64 µg/mL (≈ 120 µM) | > 128 µg/mL | > 128 µg/mL | 64 µg/mL (≈ 120 µM) | 64 µg/mL (≈ 120 µM) | > 128 µg/mL | > 128 µg/mL | O=C(NC(C(=O)NCCO)c1c[nH]c2ccc(Br)cc12)c1c[nH]c2ccc(Br)cc12 (centres unmarked) [Compound 14, 5-Bromo-N-(1-(5-bromo-1H-indol-3-yl)-2-((2-hydroxyethyl)amino)-2-oxoethyl)-1H-indole-3-carboxamide] | MIC [21]: > 32 µg/mL; MIC [22]: > 32 µg/mL; MIC [23]: > 128 µg/mL; MIC [24]: > 32 µg/mL; MIC [25]: > 32 µg/mL; MIC [26]: > 32 µg/mL; MIC [27]: > 32 µg/mL; MIC [28]: > 128 µg/mL
2 | 32 µg/mL (≈ 56.9 µM) | 32 µg/mL (≈ 56.9 µM) | 16 µg/mL (≈ 28.5 µM) | 16 µg/mL (≈ 28.5 µM) | 16 µg/mL (≈ 28.5 µM) | 32 µg/mL (≈ 56.9 µM) | 32 µg/mL (≈ 56.9 µM) | 32 µg/mL (≈ 56.9 µM) | 32 µg/mL (≈ 56.9 µM) | 32 µg/mL (≈ 56.9 µM) | 32 µg/mL (≈ 56.9 µM) | > 32 µg/mL | 128 µg/mL (≈ 228 µM) | 64 µg/mL (≈ 114 µM) | > 128 µg/mL | > 128 µg/mL | 128 µg/mL (≈ 228 µM) | 128 µg/mL (≈ 228 µM) | > 128 µg/mL | > 128 µg/mL | O=C(NC(C(=O)NCCCCO)c1c[nH]c2ccc(Br)cc12)c1c[nH]c2ccc(Br)cc12 (centres unmarked) [Compound 15, 5-Bromo-N-(1-(5-bromo-1H-indol-3-yl)-2-((4-hydroxybutyl)amino)-2-oxoethyl)-1H-indole-3-carboxamide] | MIC [21]: > 32 µg/mL; MIC [22]: > 32 µg/mL; MIC [23]: > 128 µg/mL; MIC [24]: > 32 µg/mL; MIC [25]: > 32 µg/mL; MIC [26]: > 32 µg/mL; MIC [27]: > 32 µg/mL; MIC [28]: > 128 µg/mL
